Experimental findings from ChEMBL document CHEMBL3137667, “[Drug-induced liver injury; fourteenth updated edition of the bibliographic database of liver injuries and related drugs]” (Gastroenterol Clin Biol, 2004) are described below.

Molecules are shown by their SMILES.

The conditions of series [1]: human, serum.
Series [2] is described as follows: Presence of at least one case with successful reintroduction. [column 'REINT' in source]. To be noted: human.
For series [3] the following is noted: human.
Series [4] in a line: Times to onset, minimal and maximal, observed in the indexed observations. [column 'DELAI' in source]. To be noted: human.
For series [5] the following is noted: human. This is another data set of the same source.
Series [6] in a line: Highest frequency of acute liver toxicity observed during clinical trials, expressed as a percentage. [column '% AIGUE' in source]. To be noted: human.
For series [7] the following is noted: human. The source holds these as a separate data set.
For series [8] the following is noted: human. The source holds these as a separate data set.
For series [9] the following is noted: human, serum. This is another data set of the same source.
For series [10] the following is noted: human. This is another data set of the same source.
For series [11] the following is noted: human, serum, 4383 h.
The conditions of series [12]: human. The source holds these as a separate data set.
The conditions of series [13]: human. This is another data set of the same source.
For series [14] the following is noted: human. This is another data set of the same source.
The nature of series [15]: Highest frequency of moderate liver toxicity observed during clinical trials, expressed as a percentage. [column '% BIOL' in source]. To be noted: human.
The conditions of series [16]: human. The source holds these as a separate data set.
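Throughout, for Hepatotoxicity (association with vascular disease): count of indexed literature references reporting vascular liver injury in humans, e.g. peliosis hepatitis, hepatic veno-occlusive disease or Budd-Chiari syndrome.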
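Throughout, for Hepatotoxicity (benign tumour): value is a count of indexed literature references citing a benign tumour confirmed by histopathology.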
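Throughout, for Hepatotoxicity (choleostasis): human cholestatic liver injury, shown by histopathology or by peak ALT or AST elevation over alkaline phosphatase ratio below 2, value counts indexed literature reports.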
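Throughout, for Hepatotoxicity (chronic liver disease): chronic liver injury confirmed by histopathology or persistently raised serum aminotransferase activity beyond 6 months, value given as the count of indexed literature references.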
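Throughout, for Hepatotoxicity (cirrhosis): value is a count of indexed literature references reporting cirrhosis confirmed by histopathology.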
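Throughout, for Hepatotoxicity (cytolytic): human cytolytic liver injury, shown by histopathology or by a ratio above 5 of peak ALT or AST elevation to alkaline phosphatase elevation, value counts indexed references.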
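Throughout, for Hepatotoxicity (granulomatous hepatitis): value is a count of indexed literature references reporting granulomatous liver disease confirmed by histopathology.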
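Throughout, for Hepatotoxicity (malignant tumour): malignant tumour confirmed by histopathology, value gives the count of indexed literature references reporting it.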
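Throughout, for Hepatotoxicity (severe hepatitis): human clinical data: severe hepatitis, meaning potentially life-threatening liver failure or clinically observed cases, the value counts how many indexed literature references report it.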
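Throughout, for Hepatotoxicity (steatosis): steatosis confirmed by histopathology, value is the count of indexed references.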

Turning to `O=c1[nH]c(=O)n(C2CCCO2)cc1F` (stereo not given) [TEGAFUR], the figures for the “Hepatotoxicity (acute)” value in series [1] and in series [6] were 3 and 0%, respectively. For the same compound, in [2], the “Hepatotoxicity (successful reintroduction)” value is reported as “yes”. In addition, the “Hepatotoxicity (cytolytic)” value in series [3] worked out at 1. Further, the “Hepatotoxicity (time to onset)” value in series [4] amounted to 1.5 months - 9 months. Also, in [5], the “Hepatotoxicity (benign tumour)” value came out at 0. The “Hepatotoxicity (malignant tumour)” value in series [7] was 0. Further, the “Hepatotoxicity (severe hepatitis)” value in series [8] was determined as 3. Also, the “Hepatotoxicity (moderate)” value is recorded as 2 in series [9] and 17.5% in series [15]. Besides, in [10], the “Hepatotoxicity (cirrhosis)” value is 1. In series [11], the “Hepatotoxicity (chronic liver disease)” value was 2. For the same compound, the “Hepatotoxicity (steatosis)” value in series [12] was 0. In [13], the “Hepatotoxicity (association with vascular disease)” value is 0. In [14], the “Hepatotoxicity (granulomatous hepatitis)” value came out at 0. Further, the “Hepatotoxicity (choleostasis)” value in [16] came out at 0.
For `C=C(CC)C(=O)c1ccc(OCC(=O)O)c(Cl)c1Cl` [ETHACRYNIC ACID], the “Hepatotoxicity (acute)” value in series [1] came to 2; in [6], 0%. Also, the “Hepatotoxicity (successful reintroduction)” value in series [2] was “yes”. Besides, the “Hepatotoxicity (cytolytic)” value in [3] is 2. In series [4], the “Hepatotoxicity (time to onset)” value turned out to be 2 weeks - 4 weeks. Moreover, the “Hepatotoxicity (benign tumour)” value in series [5] came out at 0. Also, in series [7], the “Hepatotoxicity (malignant tumour)” value is recorded as 0. Besides, the “Hepatotoxicity (severe hepatitis)” value in series [8] was determined as 2. Besides, the “Hepatotoxicity (moderate)” value in [9] is 0; in [15] it was 0%. Besides, the “Hepatotoxicity (cirrhosis)” value in series [10] stood at 0. The “Hepatotoxicity (chronic liver disease)” value in series [11] is given as 0. Moreover, the “Hepatotoxicity (steatosis)” value in [12] came to 0. Further, the “Hepatotoxicity (association with vascular disease)” value in [13] is listed as 0. For the same compound, in series [14], the “Hepatotoxicity (granulomatous hepatitis)” value came to 0. The “Hepatotoxicity (choleostasis)” value in [16] stood at 0.
As to `C1CNCCN1` [PIPERAZINE], the “Hepatotoxicity (acute)” value in series [1] amounted to 2; in series [6] (Liver) it was 0%. In addition, the “Hepatotoxicity (successful reintroduction)” value in series [2] was “yes”. Further, the “Hepatotoxicity (cytolytic)” value in series [3] (Liver) is on record as 1. In [4], the “Hepatotoxicity (time to onset)” value turned out to be 3 weeks - 1 month. In [5], the “Hepatotoxicity (benign tumour)” value came to 0. Further, the “Hepatotoxicity (malignant tumour)” value in [7] was 0. Further, in series [8] (Liver), the “Hepatotoxicity (severe hepatitis)” value was 0. Moreover, the “Hepatotoxicity (moderate)” value in series [9] came out at 0; in [15] (Liver) it was 0%. The “Hepatotoxicity (cirrhosis)” value in series [10] was determined as 0. The “Hepatotoxicity (chronic liver disease)” value in series [11] was 0. In series [12], the “Hepatotoxicity (steatosis)” value worked out at 0. In addition, the “Hepatotoxicity (association with vascular disease)” value in series [13] was determined as 0. Further, in series [14] (Liver), the “Hepatotoxicity (granulomatous hepatitis)” value is listed as 0. For the same compound, the “Hepatotoxicity (choleostasis)” value in series [16] (Liver) was determined as 2.
`CC(=O)Oc1ccc(C(=C2CCCCC2)c2ccc(OC(C)=O)cc2)cc1` [CYCLOFENIL]: the entries for the “Hepatotoxicity (acute)” value in series [1] and in series [6] were 5 and 1.3%, respectively. The “Hepatotoxicity (successful reintroduction)” value in series [2] is “yes”. Moreover, the “Hepatotoxicity (cytolytic)” value in series [3] is on record as 3. Moreover, the “Hepatotoxicity (time to onset)” value in series [4] was 1 month - 5 months. Also, the “Hepatotoxicity (benign tumour)” value in series [5] is on record as 0. The “Hepatotoxicity (malignant tumour)” value in series [7] amounted to 0. The “Hepatotoxicity (severe hepatitis)” value in series [8] was determined as 0. The “Hepatotoxicity (moderate)” value amounted to 8 in series [9] and 55.6% in series [15]. In series [10], the “Hepatotoxicity (cirrhosis)” value came to 0. For the same compound, in [11], the “Hepatotoxicity (chronic liver disease)” value was determined as 0. For the same compound, the “Hepatotoxicity (steatosis)” value in [12] was found to be 0. Further, in [13], the “Hepatotoxicity (association with vascular disease)” value is 1. In addition, the “Hepatotoxicity (granulomatous hepatitis)” value in series [14] turned out to be 1. The “Hepatotoxicity (choleostasis)” value in [16] was found to be 2.
Consider `N[C@@H](C(=O)N[C@@H]1C(=O)N2C(C(=O)O)=C(Cl)CC[C@H]12)c1ccccc1` [LORACARBEF ANHYDROUS], for which the “Hepatotoxicity (acute)” value in [1] is 1; in series [6], 0%. Moreover, the “Hepatotoxicity (successful reintroduction)” value in series [2] is “yes”. The “Hepatotoxicity (cytolytic)” value in series [3] is 1. The “Hepatotoxicity (time to onset)” value in [4] is 1 week - 6 weeks. Further, the “Hepatotoxicity (benign tumour)” value in series [5] amounted to 0. Moreover, in series [7], the “Hepatotoxicity (malignant tumour)” value was determined as 0. Besides, the “Hepatotoxicity (severe hepatitis)” value in series [8] is 0. The entries for the “Hepatotoxicity (moderate)” value in series [9] and in series [15] were 19 and 15%, respectively. In addition, the “Hepatotoxicity (cirrhosis)” value in [10] is listed as 0. Moreover, the “Hepatotoxicity (chronic liver disease)” value in series [11] is 0. Besides, in series [12], the “Hepatotoxicity (steatosis)” value is reported as 0. In series [13], the “Hepatotoxicity (association with vascular disease)” value was found to be 0. Also, the “Hepatotoxicity (granulomatous hepatitis)” value in series [14] was found to be 0. The “Hepatotoxicity (choleostasis)” value in series [16] was 1.
For the compound `Cc1c(Cl)cccc1Nc1ccccc1C(=O)O` [TOLFENAMIC ACID], the “Hepatotoxicity (acute)” value in [1] is 2; in [6] it was 0%. The “Hepatotoxicity (successful reintroduction)” value in series [2] was “yes”. The “Hepatotoxicity (cytolytic)” value in series [3] is given as 1. The “Hepatotoxicity (time to onset)” value in [4] worked out at 6 months. Moreover, the “Hepatotoxicity (benign tumour)” value in [5] is listed as 0. Further, the “Hepatotoxicity (malignant tumour)” value in series [7] is 0. Further, the “Hepatotoxicity (severe hepatitis)” value in [8] was 0. Besides, the “Hepatotoxicity (moderate)” value amounted to 0 in series [9] and 0% in series [15]. The “Hepatotoxicity (cirrhosis)” value in series [10] came to 0. For the same compound, in series [11], the “Hepatotoxicity (chronic liver disease)” value is 0. In series [12], the “Hepatotoxicity (steatosis)” value is listed as 0. Further, in series [13], the “Hepatotoxicity (association with vascular disease)” value was 0. Moreover, in [14], the “Hepatotoxicity (granulomatous hepatitis)” value came out at 0. In addition, in series [16], the “Hepatotoxicity (choleostasis)” value is given as 0.
As for `O=C(CCCN1CCC(O)(c2ccc(Br)cc2)CC1)c1ccc(F)cc1` [BROMPERIDOL], the figures for the “Hepatotoxicity (acute)” value in [1] and in [6] were 1 and 0%, respectively. For the same compound, in series [2], the “Hepatotoxicity (successful reintroduction)” value is on record as “yes”. The “Hepatotoxicity (cytolytic)” value in [3] worked out at 0. Also, the “Hepatotoxicity (time to onset)” value in series [4] is 2 weeks - 6 weeks. The “Hepatotoxicity (benign tumour)” value in [5] is recorded as 0. For the same compound, the “Hepatotoxicity (malignant tumour)” value in [7] was found to be 0. The “Hepatotoxicity (severe hepatitis)” value in series [8] was 0. In addition, the “Hepatotoxicity (moderate)” value in series [9] is given as 0; in [15] it was 0%. In series [10], the “Hepatotoxicity (cirrhosis)” value was 0. Further, in series [11], the “Hepatotoxicity (chronic liver disease)” value was found to be 0. Also, the “Hepatotoxicity (steatosis)” value in series [12] was determined as 0. Besides, the “Hepatotoxicity (association with vascular disease)” value in [13] is 0. For the same compound, the “Hepatotoxicity (granulomatous hepatitis)” value in [14] is recorded as 0. For the same compound, the “Hepatotoxicity (choleostasis)” value in [16] is given as 0.
For `C[C@H]1C[C@@H]2[C@H]([C@@H](O)C[C@@]3(C)[C@H]2CC[C@]3(O)C(=O)CO)[C@@]2(C)C=CC(=O)C=C12` [METHYLPREDNISOLONE], the “Hepatotoxicity (acute)” value in series [1] was 2; in series [6] it was 0%. Further, in series [2], the “Hepatotoxicity (successful reintroduction)” value is given as “yes”. Also, the “Hepatotoxicity (cytolytic)” value in series [3] came out at 2. The “Hepatotoxicity (time to onset)” value in series [4] was 40 days. The “Hepatotoxicity (benign tumour)” value in series [5] turned out to be 0. In addition, the “Hepatotoxicity (malignant tumour)” value in [7] was 0. Further, in series [8], the “Hepatotoxicity (severe hepatitis)” value was found to be 0. The results for the “Hepatotoxicity (moderate)” value in series [9] and in [15] were 0 and 0%, respectively. In addition, the “Hepatotoxicity (cirrhosis)” value in series [10] is given as 0. The “Hepatotoxicity (chronic liver disease)” value in series [11] is 0. The “Hepatotoxicity (steatosis)” value in series [12] is on record as 2. In addition, the “Hepatotoxicity (association with vascular disease)” value in series [13] is 0. Further, the “Hepatotoxicity (granulomatous hepatitis)” value in series [14] was 0. Moreover, the “Hepatotoxicity (choleostasis)” value in series [16] is 0.
Turning to `C[C@@H]1O[C@@H]1P(=O)(O)O` [FOSFOMYCIN], the “Hepatotoxicity (acute)” value is 1 in series [1] and 0% in series [6]. In series [2], the “Hepatotoxicity (successful reintroduction)” value is “yes”. Further, the “Hepatotoxicity (cytolytic)” value in series [3] was 1. In [4], the “Hepatotoxicity (time to onset)” value was 3 days - 4 days. In addition, the “Hepatotoxicity (benign tumour)” value in series [5] stood at 0. For the same compound, the “Hepatotoxicity (malignant tumour)” value in series [7] is reported as 0. Further, the “Hepatotoxicity (severe hepatitis)” value in series [8] stood at 0. Moreover, the “Hepatotoxicity (moderate)” value turned out to be 8 in [9] and 23.8% in series [15]. In series [10], the “Hepatotoxicity (cirrhosis)” value stood at 0. Also, the “Hepatotoxicity (chronic liver disease)” value in series [11] is given as 0. Moreover, the “Hepatotoxicity (steatosis)” value in [12] turned out to be 0. In addition, the “Hepatotoxicity (association with vascular disease)” value in [13] is reported as 0. Moreover, the “Hepatotoxicity (granulomatous hepatitis)” value in [14] was 0. For the same compound, the “Hepatotoxicity (choleostasis)” value in series [16] worked out at 0.
Regarding `CC(C(=O)O)c1ccc(-c2ccccc2)c(F)c1` (stereo not given) [FLURBIPROFEN], the “Hepatotoxicity (acute)” value amounted to 3 in [1] and 0% in series [6]. Moreover, in series [2], the “Hepatotoxicity (successful reintroduction)” value is recorded as “yes”. In series [3], the “Hepatotoxicity (cytolytic)” value was found to be 2. For the same compound, the “Hepatotoxicity (time to onset)” value in [4] was determined as 1 day - 2 months. In [5], the “Hepatotoxicity (benign tumour)” value is 0. The “Hepatotoxicity (malignant tumour)” value in [7] was found to be 0. Besides, the “Hepatotoxicity (severe hepatitis)” value in series [8] came to 0. For the same compound, the results for the “Hepatotoxicity (moderate)” value in series [9] and in series [15] were 4 and 8.1%, respectively. Moreover, in [10], the “Hepatotoxicity (cirrhosis)” value was determined as 0. For the same compound, in series [11], the “Hepatotoxicity (chronic liver disease)” value is 0. Also, the “Hepatotoxicity (steatosis)” value in series [12] stood at 0. Further, the “Hepatotoxicity (association with vascular disease)” value in [13] is 0. Further, the “Hepatotoxicity (granulomatous hepatitis)” value in series [14] was determined as 0. Also, the “Hepatotoxicity (choleostasis)” value in series [16] stood at 1.
